Measurements from ChEMBL document CHEMBL1155712, “Cytotoxic polyacetylenes from the twigs of Ochanostachys amentacea” (2001).
Converted amounts (≈) assume the structure as drawn.

Experiments:
Type in all cases: functional
Details in all cases: read-out: ED50 (the source's name)
[1] = tested on: Lu1; assay: Cytotoxicity against human Lu1 cells
[2] = tested on: KB; assay: Cytotoxicity against multidrug-resistant human KB cells in presence of vinblastine
[3] = tested on: SK-N-SH; assay: Cytotoxicity against human SK-N-SH cells
[4] = tested on: LNCaP; assay: Cytotoxicity against human LNCAP cells
[5] = tested on: Col2; assay: Cytotoxicity against human Col2 cells
[6] = tested on: KB; assay: Cytotoxicity against human KB cells
[7] = tested on: SW626; assay: Cytotoxicity against human SW626 cells
[8] = Cytotoxicity against human BC1 cells
[9] = tested on: M109; assay: Cytotoxicity against mouse M109 cells
[10] = tested on: KB; assay: Cytotoxicity against multidrug-resistant human KB cells in absence of vinblastine
[11] = tested on: P388; assay: Cytotoxicity against mouse P388 cells

Q: Which EC50 [1] does the source give for `C[C@H](O)/C=C/C#CC#CC#CCCCCCCCC(=O)O` here?
A: > 20 µg/mL

Q: What about the EC50 [2] of the same compound?
A: > 20 µg/mL

Q: And the EC50 [3]?
A: 3.7 µg/mL (≈ 12.9 µM)

Q: And the EC50 [4]?
A: 0.3 µg/mL (≈ 1.05 µM)

Q: What about the EC50 [5] of the same compound?
A: 9.9 µg/mL (≈ 34.6 µM)

Q: What about the EC50 [6] of the same compound?
A: 1.1 µg/mL (≈ 3.84 µM)

Q: What about the EC50 [7] of the same compound?
A: 0.36 µg/mL (≈ 1.26 µM)

Q: And the EC50 [8]?
A: > 20 µg/mL

Q: And the EC50 [9]?
A: 5.4 µg/mL (≈ 18.9 µM)

Q: What about the EC50 [10] of the same compound?
A: > 20 µg/mL

Q: With `O=C(O)CCCCCCCC#CC#CC#CC#CC(O)CO` (single isomer, unassigned) as the compound, how does the EC50 [1] read?
A: 14.6 µg/mL (≈ 48.6 µM)

Q: What about the EC50 [2] of the same compound?
A: 11.9 µg/mL

Q: What about the EC50 [3] of the same compound?
A: 6.7 µg/mL (≈ 22.3 µM)

Q: And the EC50 [4]?
A: 9.2 µg/mL (≈ 30.6 µM)

Q: What about the EC50 [5] of the same compound?
A: > 20 µg/mL

Q: And the EC50 [6]?
A: 2.6 µg/mL (≈ 8.66 µM)

Q: What about the EC50 [7] of the same compound?
A: 19.4 µg/mL (≈ 64.6 µM)

Q: What about the EC50 [8] of the same compound?
A: > 20 µg/mL

Q: And the EC50 [9]?
A: 10.1 µg/mL (≈ 33.6 µM)

Q: And the EC50 [10]?
A: 13.4 µg/mL (≈ 44.6 µM)

Q: Which results are given for `C[C@H](O)C#CC#CC#CC#CCCCCCCCC(=O)O` [MINQUARTYNOIC ACID]?
A: EC50 [1]: 4.1 µg/mL (≈ 14.4 µM); EC50 [2]: 2.8 µg/mL; EC50 [3]: 1.4 µg/mL (≈ 4.92 µM); EC50 [4]: 1.6 µg/mL (≈ 5.63 µM); EC50 [5]: 5.5 µg/mL (≈ 19.3 µM); EC50 [6]: 3.7 µg/mL (≈ 13 µM); EC50 [7]: 4.1 µg/mL (≈ 14.4 µM); EC50 [8]: 3.5 µg/mL (≈ 12.3 µM); EC50 [9]: 3.7 µg/mL (≈ 13 µM); EC50 [11]: 0.18 µg/mL (≈ 0.633 µM); EC50 [10]: 4.3 µg/mL (≈ 15.1 µM)
